From patent US9517200B2, “Methods of delivering pharmaceutical agents” (Massachusetts Eye and Ear Infirmary, priority 2011, dated 2016)

System: 6-hydroxydopamine (6-OHDA) injury Parkinson's Disease mouse model
Assay: Apomorphine-induced rotational behavior in unilateral striatal 6-OHDA injury mice
Format: in vivo
Conditions: intraperitoneal injection, 300 μL, 0.065 mg/mL, two weeks post-injury
Procedure: The details of these experiments are described below.
The mice underwent unilateral striatal 6-hydroxydopamine (6-OHDA) injection (3.2 μg/μL, 0.5 μL/min) according to Francardo et al. (Neurobiol. Dis. 42:327-340, 2011). […] The placement of a SEM graft over the skull of the mice was performed as described above. The duration of rotational behavior was determined in the treated mice.
The position of the mice was recorded by a camera (while they move freely in an arena). The number of contralateral rotations per minute was quantified using a custom analysis program written in Matlab and C++. Statistical analyses were performed using a Student's t-test to compare results between treatment groups (Stata v6.0).

## CN1CCc2cccc3c2[C@H]1Cc1ccc(O)c(O)c1-3 [apomorphine]
  rotational behavior (contralateral turns per minute): increased
